System: Hepa1-6/luc liver and lung metastasis
Assay: Liver and lung metastasis model
Format: in vivo, mouse
Settings: Hepa1-6/luc cells via spleen or tail vein, 300 µM in 200 µL i.v. every two days, 16 days, n = 5
Excerpt: Submitted to Advanced Science
effector T cells (CD45+CD3+CD8+)/(CD45+CD3+CD4+), tumor cells were stained with anti-CD45-FITC
(Biolegend), anti-CD3ε-PerCP-Cy5.5 (Biolegend), anti-CD4-APC (Biolegend), and anti-CD8a-PE (Biolegend)
antibodies according to the standard protocol. For evaluation of NK cells (CD45+CD3-NK1.1+), tumor cells
were stained with anti-CD45-FITC (Biolegend), anti-CD3-PE (Biolegend) and anti-CD49b-APC (Biolegend)
antibodies and examined using flow cytometry. For MDSCs (CD45+CD11b+Gr-1+) analysis, tumor cells were
stained with anti-CD45-FITC, anti-CD11b-BrilliantViolet-510 (Biolegend), anti -F4/80-PE (Biolegend), and
anti-Gr-1-APC (Biolegend) antibodies for flow cytometry examination (BD FACS Canto SORP, USA). The
software FlowJo V10.6.2 was used for data analysis. To further explore the immunomodulatory effects of FTP-
NPs. Tumor tissues were harvested for immune profiling. Plasma cytokine levels, including IL-6, IL-10, and
TNF-α, were measured using commercially available ELISA kits to assess the immune activation induced by
Experimental liver and lung metastasis model
Six-week-old male C57BL/6J mice (20–25 g) were used to establish liver and lung metastasis models. Hepa1-
6/luc cells (1 × 10^6 cells) were injected into the spleen or tail vein of the mice to induce liver or lung
metastasis, respectively. For the liver metastasis model, Hepa1-6/luc cells were injected into the spleen, allowing
tumor cells to circulate and establish metastases in the liver. For the lung metastasis model, Hepa1-6/luc cells
were injected via the tail vein, leading to the formation of metastases in the lungs. Following cell implantation, […]
euthanized, and metastases were assessed macroscopically. […]
injecting D-Luciferin (150 mg/kg) intraperitoneally, and tumor burden was quantified using the IVIS Spectrum […]
conducted, and metastatic lesions were assessed under an inverted microscope (Axiovert 200, Zeiss, Germany). […]
300 μM per injection) for mice. […] (b) Fluorescence quantized chart […]
experiments. Statistical significance was calculated by one-way ANOVA, *p < 0.050.(c, d) Photographs of lung […]

Structure (SMILES): CC(C)(C)C(=O)Oc1ccc(S(=O)(=O)Nc2ccccc2C(=O)NCC(=O)O)cc1 [NEi, Sivelestat, reference compound]
- liver and lung metastasis (bioluminescent signals, number of metastatic foci): obvious metastases
